Laboratory results from paper PMC5298231, “The Malaria Parasite's Lactate Transporter PfFNT Is the Target of Antiplasmodial Compounds Identified in Whole Cell Phenotypic Screens” (PLoS Pathogens, 2017).
Entries after “also recorded” stand apart in the source; their conditions may differ. Where a name gives a salt, the structure may show the parent alone. Peptide text beside a SMILES is read from it.

Key:
3D7 parasites = details: ref [1] Van Voorhis et al. 2016; read-out: IC50 for killing of 3D7 parasites; cited from earlier work
[1] = tested on: erythrocytes infected with 3D7 trophozoites; format: cell-based, Plasmodium falciparum; details: sheet Ratio; for Ratio of metabolite abundance, Exp1_1hr: Exp1, 1hr; for Ratio of metabolite abundance, Exp1_3hr: Exp1, 3hr; for Ratio of metabolite abundance, Exp1_6hr: Exp1, 6hr; for Ratio of metabolite abundance, Exp2_1hr: Exp2, 1hr; for Ratio of metabolite abundance, Exp2_3hr: Exp2, 3hr; for Ratio of metabolite abundance, Exp2_6hr: Exp2, 6hr; for Ratio of metabolite abundance, Exp3_1hr: Exp3, 1hr; for Ratio of metabolite abundance, Exp3_3hr: Exp3, 3hr; for Ratio of metabolite abundance, Exp3_6hr: Exp3, 6hr
Dd2 parent parasites = assay: Parasite proliferation assay, Dd2 parent; format: cell-based, Plasmodium falciparum; details: Plasmodium falciparum, DD2, read-out: IC50 value, growth inhibition
Method: Parasite proliferation was measured in 96-well plates using a fluorescent DNA-intercalating dye [45]. The assays were initiated with erythrocytes infected with predominantly ring-stage parasites, and the starting parasitaemia was 0.5–1% and the haematocrit was 1%.

[2] = tested on: MMV007839-selected culture A (PfFNT Gly107Ser); assay: Parasite proliferation assay, MMV007839-selected culture A; format: cell-based, Plasmodium falciparum
Method: (§1) Parasite proliferation was measured in 96-well plates using a fluorescent DNA-intercalating dye. The assays were initiated with erythrocytes infected with predominantly ring-stage parasites, and the starting parasitaemia was 0.5–1% and the haematocrit was 1%.
(§2) For MMV007839-selected culture A, the drug concentration was increased by 5 nM increments on Day 18, Day 21, and every two days thereafter. […] The cultures were provided with fresh medium and blood and diluted to reduce the parasitaemia as needed.

[3] = tested on: MMV007839-selected culture B (PfFNT Gly107Ser); assay: Parasite proliferation assay, MMV007839-selected culture B; format: cell-based, Plasmodium falciparum; details: Plasmodium falciparum, read-out: IC50 value, growth inhibition
Method: as §1, §2

[4] = tested on: PfFNT^Gly107Ser mutant parasites (MMV007839-selected culture B); assay: L-[14C]lactate uptake by isolated PfFNT Gly107Ser mutant parasites; details: 100 μM, pH 6.1, 4°C
Dd2 parental parasites = assay: L-[14C]lactate uptake by isolated Dd2 parental parasites; details: 100 μM; parental parasites; pH 6.1, 4°C
[5] = tested on: isolated 3D7 P. falciparum trophozoites; assay: L-[14C]lactate uptake by isolated 3D7 trophozoites; details: 50 μM; pH 6.1, 4°C; control (DMSO) 6.7 ± 0.4; mean ± SEM

Compound	IC50 (3D7 parasites) [nM]	Ratio of metabolite abundance, Exp1_1hr [1]	Ratio of metabolite abundance, Exp1_3hr [1]	Ratio of metabolite abundance, Exp1_6hr [1]	Ratio of metabolite abundance, Exp2_1hr [1]	Ratio of metabolite abundance, Exp2_3hr [1]	Ratio of metabolite abundance, Exp2_6hr [1]	Ratio of metabolite abundance, Exp3_1hr [1]	Ratio of metabolite abundance, Exp3_3hr [1]	Ratio of metabolite abundance, Exp3_6hr [1]	also measured
O=C(Nc1nc(-c2ccccn2)cs1)c1ccccc1Br [MMV665909]	1360										
Brc1ccc(Nc2nc3ccccc3nc2Nc2ccc(Br)cc2)cc1 [MMV007224]	1060										
O=C(Nc1ccc(Cl)c(Cl)c1)Nc1ccc(Cl)c(Cl)c1 [MMV665852]	1160										
Cc1cccc(-n2ncc3c(O)nc(-n4nc(C)cc4NC(=O)c4cc5ccccc5o4)nc32)c1 [MMV403679]	930										
O=C(Cc1ccccc1)NC(c1ccc(Cl)cc1)c1c(O)ccc2ccccc12 (stereo not shown) [MMV665972]	1140										
FC(F)(F)c1cccc(Nc2nc3ccccc3nc2Nc2cccc(C(F)(F)F)c2)c1 [MMV665794]	310										
O=C(NC(c1ccccc1)c1ccc2cccnc2c1O)c1ccccc1 (stereo not shown) [MMV666080]	1170										
CCCCCCc1cc(O)c2c3c(c(=O)oc2c1)CCC(C)C3 (stereo not shown) [MMV665987]	530										
CC(C)CCC[C@@H](C)[C@H]1CC[C@H]2[C@@H]3CC=C4C[C@@H](OS(=O)(=O)O)CC[C@]4(C)[C@H]3CC[C@]12C [Cholesteryl sulfate]		0.8398	0.919	0.8716	0.7894	1.057	0.9329	0.813	0.7802	0.8279	
Nc1ncnc2c1ncn2[C@H]1C[C@H](O)[C@@H](COP(=O)(O)OP(=O)(O)O)O1 [dADP]		0.4339	0.1672	0.2747	1.0009	0.9609	1.167	1.173	0.5208	1.268	
O=C(O)c1cc(=O)[nH]c(=O)[nH]1 [Orotate]		0.5025	0.4692	0.3315	0.4622	0.4131	0.4313	0.3435	0.2448	0.2332	
Cc1ccc(Nc2nc(-c3ccccn3)cs2)cc1 [MMV007907]	350										
O=C[C@H](O)[C@H](O)COP(=O)(O)O [Erythrose 4-phosphate]		0.8874	1.021	0.7492	0.7497	0.9809	0.8462	0.7238	0.584	0.3651	
CC(C)[C@H](NC(=O)[C@@H](N)CCC(=O)O)C(=O)NCC(=O)NCC(=O)O [EVGG] (H-EVGG-OH)		1.013	0.7941	0.8262	1.036	0.9151	0.9384	0.988	0.9676	0.8158	
O=P(O)(O)OC[C@H]1OC(O)[C@H](O)[C@@H](O)[C@@H]1O (stereo partly shown) [Glucose-6-Phosphate]		0.8219	0.7353	0.7494	0.9729	0.8323	0.7319	0.8489	0.791	0.6337	
O=C(O)C1CCCCN1 (stereo not shown) [Pipecolate]		1.3778	1.045	1.52	1.38	1.052	2.481	1.352	1.13	2.281	
CCCCNc1nc(NC(C)(C)C)nc(NC(C)(C)C)n1 [MMV665864]	710										
CC(C)[C@H](NC(=O)[C@H](C)NC(=O)[C@H](CC(=O)O)NC(=O)[C@@H]1CCCN1)C(=O)O [PDAV] (H-PDAV-OH)		1.025	1.041	2.029	1.45	1.498	2.552	1.376	1.38	2.341	
Nc1ncnc2c1ncn2[C@@H]1O[C@H](COP(=O)(O)OP(=O)(O)OP(=O)(O)O)[C@@H](O)[C@H]1O [ATP]		0.9749	0.855	0.8179	0.9538	0.8859	0.784	0.9549	0.8395	0.7365	
O=P(O)(O)OC[C@H](O)CO [sn-Glycerol 3-phosphate]		2.74	3.024	2.283	2.716	2.322	2.253	2.3639	3.645	2.752	
O=CCCC(=O)O [Succinate semialdehyde]		0.6229	0.6245	0.614	0.9462	0.5836	0.7757	0.7696	0.6244	0.8444	
CC(C)OCc1cc(CN2CCN(c3cccc(Cl)c3)CC2)c(O)c2ncccc12 [MMV000788]	700										
C[C@@H]1CC[C@H]2[C@@H](C)C(=O)O[C@@H]3O[C@@]4(C)CC[C@@H]1[C@]32OO4 [Artemisinin, reference compound]											IC50 (Dd2 parent parasites): 15.6 nM; IC50 ([2]; Plasmodium falciparum, MMV007839-selected culture A, mean ± SEM, read-out: IC50 value, growth inhibition): 22 ± 3.3 nM; Response of MMV007839-selected cultures compared with Dd2 parental parasites ([2]; both MMV007839-selected cultures (A and B), P > 0.1): not significantly different; also recorded: not affecting; IC50 [3]: 16.5 ± 0.4 nM
O=C(O)c1cc([N+](=O)[O-])ccc1NCCCc1ccccc1 [NPPB, reference compound]											Effect on rate of L-[14C]lactate influx [4]: reduced the rate; Effect on rate of L-[14C]lactate influx (Dd2 parental parasites): reduced the rate; L-[14C]lactate distribution ratio at 20 s [5]: 0.4 ± 0.1
O=C(O)[C@@H]1CC(O)CN1 (stereo partly drawn) [Hydroxy-L-proline]		1.2334	0.9688	0.6326	1.182	1.17	1.132	1.1402	1.1046	1.082	
O=C(O)CCC(=O)C(=O)O [2-Ketoglutarate]		0.5638	0.5076	0.5229	1.061	0.5178	0.7675	0.6752	0.6868	0.9353	
O=C(Nc1ccc(F)c(Cl)c1)Nc1ccc(Cl)c(Cl)c1 [MMV665953]	2060										
